One test has as its target T1, Tyrosine-protein phosphatase non-receptor type 1 (Homo sapiens, UniProt P18031).
T1 sequence (P18031 whole entry): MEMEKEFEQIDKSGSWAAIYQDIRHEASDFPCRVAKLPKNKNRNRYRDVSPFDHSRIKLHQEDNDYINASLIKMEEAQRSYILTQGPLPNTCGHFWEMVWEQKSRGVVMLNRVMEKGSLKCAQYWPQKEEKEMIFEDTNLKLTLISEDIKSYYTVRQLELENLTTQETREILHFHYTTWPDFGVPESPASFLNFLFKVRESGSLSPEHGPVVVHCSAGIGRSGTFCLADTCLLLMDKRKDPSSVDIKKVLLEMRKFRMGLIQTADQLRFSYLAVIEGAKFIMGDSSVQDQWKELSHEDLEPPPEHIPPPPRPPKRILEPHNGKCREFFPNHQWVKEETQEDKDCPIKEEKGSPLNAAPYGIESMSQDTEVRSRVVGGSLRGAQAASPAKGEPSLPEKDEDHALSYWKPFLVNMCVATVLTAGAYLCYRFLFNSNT
The experiment in a line: Inhibitory potency for the protein tyrosine phosphatase (PTP 1B)-catalyzed hydrolysis of p-nitrophenol phosphate; No inhibition. Type of test: functional.
As to `O=P(O)(O)C(F)(F)c1ccccc1`, the IC50 (in general, the concentration that inhibits the measured activity by half) is given as “Not Active”.

The target in another test is T1, Tyrosine-protein phosphatase non-receptor type 1. Nature of the test: Inhibitory potency for the protein tyrosine phosphatase (PTP 1B)-catalyzed hydrolysis of p-nitrophenol phosphate. Type of test: functional.
Take `COc1ccc(-c2ccc(C(F)(F)P(=O)(O)O)cc2)cc1`: the IC50 is 451 µM.
On the same count and under the same terms, as for `O=P(O)(O)C(F)(F)c1cccc(C#Cc2ccccc2)c1`, the figure is 136 µM.
Still for that read-out and setting: as for `C#Cc1cccc(C(F)(F)P(=O)(O)O)c1`, the figure is 19 µM; as for `O=P(O)(O)C(F)(F)c1cccc(/C=C/c2ccccc2)c1`, 386 µM.
For the molecule `O=P(O)(O)C(F)(F)c1ccc(C#Cc2ccccc2)cc1`, the half-inhibitory concentration (IC50) was found to be 128 µM.
The same measure, in the same setting: with `O=P(O)(O)C(F)(F)c1ccc(/C=C/c2ccccc2)cc1` the figure was 450 µM.
On to `CS(=O)(=O)Nc1cc(C(F)(F)P(=O)(O)O)ccc1C#Cc1ccccc1`, for which half-maximal inhibition (IC50) required 167 µM.
Still for that read-out and setting: with `O=P(O)(O)C(F)(F)c1ccc2ccccc2c1` the figure was 718 µM.
`O=P(O)(O)C(F)(F)c1ccc(-c2ccccc2)cc1` registered an IC50 of 779 µM. This IC50 and that of the molecule before are within 1.5-fold of each other.
Same read-out and setting: with `CS(=O)(=O)N(c1cc(C(F)(F)P(=O)(O)O)ccc1C#Cc1ccccc1)S(C)(=O)=O` the figure was 88.7 µM.
`CS(=O)(=O)Nc1cc(C(F)(F)P(=O)(O)O)ccc1/C=C/c1ccccc1`: half-maximal inhibition (IC50) required 176 µM.
The same measure, in the same setting: with `CS(=O)(=O)N(c1cc(C(F)(F)P(=O)(O)O)ccc1/C=C/c1ccccc1)S(C)(=O)=O` the figure was 57.9 µM; with `C#Cc1ccc(C(F)(F)P(=O)(O)O)cc1`, 77.5 µM.

These data come from ChEMBL document CHEMBL1131941, “Synthesis and biological evaluation of alpha,alpha-difluorobenzylphosphonic acid derivatives as small molecular inhibitors of protein-tyrosine phosphatase 1B” (Bioorg Med Chem Lett, 1999).
